These results are taken from ChEMBL document CHEMBL4725416, “Structure-Based Discovery of Novel Ligands for the Orexin 2 Receptor” (J Med Chem, 2020).

Test [1] is described as follows: Displacement of [3H]-EMPA from human orexin 2 receptor expressed in CHO cells incubated for 2 hrs by whole cell radioligand binding assay. The test is classed as cell-based. (In general: In a radioligand displacement assay an active substance lowers the binding of a labelled ligand.)
Test [2] addresses T1, Orexin/Hypocretin receptor type 1 (Homo sapiens, UniProt O43613).
T1 sequence (O43613 whole entry): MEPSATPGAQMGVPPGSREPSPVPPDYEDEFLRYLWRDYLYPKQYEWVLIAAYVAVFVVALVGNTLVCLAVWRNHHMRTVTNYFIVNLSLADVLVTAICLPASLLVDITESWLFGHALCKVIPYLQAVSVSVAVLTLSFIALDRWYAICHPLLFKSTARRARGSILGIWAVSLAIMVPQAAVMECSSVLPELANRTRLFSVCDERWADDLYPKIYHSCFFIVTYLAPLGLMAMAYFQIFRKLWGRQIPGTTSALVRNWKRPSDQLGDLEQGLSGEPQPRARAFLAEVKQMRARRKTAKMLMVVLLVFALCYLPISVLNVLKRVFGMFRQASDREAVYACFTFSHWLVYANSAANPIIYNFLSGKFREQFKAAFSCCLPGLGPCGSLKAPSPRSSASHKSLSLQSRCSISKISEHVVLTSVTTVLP
The test can be described thus: Displacement of [3H]-[…] from human orexin 1 receptor expressed in CHO cells incubated for 2 hrs by whole cell radioligand binding assay. Format: cell-based.

The species entered for test [3] is Homo sapiens. Nature of the test: Displacement of [3H]-EMPA from human orexin 2 receptor expressed in CHO cells incubated for 2 hrs by whole cell radioligand binding assay relative to control. The test is classed as cell-based. More on the design: concentration or dose not given beside the values. The following applies: dose or concentration not given here.
For test [4], the target named is T2, Orexin receptor type 2 (Homo sapiens) (UniProt O43614).
T2 sequence (whole entry): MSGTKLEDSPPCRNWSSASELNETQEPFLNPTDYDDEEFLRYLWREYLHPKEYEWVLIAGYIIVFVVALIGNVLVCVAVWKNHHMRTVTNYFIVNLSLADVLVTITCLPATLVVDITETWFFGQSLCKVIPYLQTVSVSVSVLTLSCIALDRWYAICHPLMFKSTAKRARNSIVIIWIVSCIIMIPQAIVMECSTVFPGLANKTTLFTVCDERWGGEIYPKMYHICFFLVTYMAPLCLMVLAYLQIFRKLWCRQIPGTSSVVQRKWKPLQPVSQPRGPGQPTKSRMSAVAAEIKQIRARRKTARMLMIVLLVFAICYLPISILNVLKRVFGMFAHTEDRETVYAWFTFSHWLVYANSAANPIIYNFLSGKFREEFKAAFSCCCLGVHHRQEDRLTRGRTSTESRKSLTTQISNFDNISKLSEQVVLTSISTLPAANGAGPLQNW
Nature of the test: Agonist activity at human orexin 2 receptor expressed in CHO cells assessed as increase in calcium mobilization incubated for 120 secs by Fluo-4AM dye based fluorescence assay. Conditions: time 120.0 sec. The test is classed as functional, cell-based. (In general: A change in cytosolic calcium serves as a functional read-out for many receptors and channels.)

For test [5], the target named is T3, Orexin/Hypocretin receptor type 1 (Homo sapiens) (UniProt O43613).
T3 sequence (whole entry): T1 sequence (O43613 whole entry)
The following applies: CHO, time 120.0 sec.
Description: Agonist activity at human orexin 1 receptor expressed in CHO cells assessed as increase in calcium mobilization incubated for 120 secs by Fluo-4AM dye based fluorescence assay

A word on the pKi: it is the Ki on a negative log10 scale, so that one unit is a factor of ten. The Ki is a measure of affinity in units of concentration, obtained from inhibition or displacement. One may read the inhibition as how much of the control response was suppressed.

Activity calls are given as the source filed them. The calls are words filed in the database; no cut-off is given here.

In test [1], `Cc1ccc(Oc2ncccc2NC(=O)c2ccc3c(c2)OCCCO3)c2c1CCC2` displayed a pKi of 5.19. The compound also gave a Ki in test [2] of 5.13 µM. In test [3], the inhibition is 67.1%.

Consider `Cc1ccc(CSCc2ccc(-c3nc(-c4ccccn4)no3)o2)cc1`, for which the pKi in test [1] amounted to 5.07. Further, the affinity in test [2] corresponds to a Ki of 15.5 µM. The pEC50 entry in test [4] was “inactive”. In addition, the inhibition in test [3] worked out at 79.2%.

As to `Cc1ccc(C(=O)[C@H](C)Oc2cccc(N3C(=O)[C@H]4[C@H](C)C=CC[C@@H]4C3=O)c2)cc1`, the pKi in test [1] was 4.97. In test [2], the inhibition constant Ki was 7.76 µM. Also, the inhibition in test [3] amounted to 49.9%.

`Cc1nc2cc(F)cc(C(=O)NCCOc3ccc4ccccc4c3)c2nc1C` displayed a pKi in test [1] of 5.83. For the same compound, the inhibition in test [3] worked out at 61.7%.

Compound `O=C(Nc1cccc(/C=C/c2ccccn2)c1)c1occc1COc1ccccc1` came in with a pKi in test [1] of 4.98. Also, the affinity in test [2], expressed as Ki, was 7.94 µM. Further, the inhibition in test [3] turned out to be 39.9%.

In test [1], `C[C@H](Sc1nc(-c2ccco2)nc2ccccc12)C(=O)N1CCc2ccccc2C1` came in with a negative logarithm of the Ki (pKi) of 5.5. Also, the pEC50 entry in test [5] and in test [4] was “inactive” each time. Besides, in test [2], the affinity, expressed as Ki, was 8.91 µM.

For `C[C@@H](Oc1ccc2c(c1)oc(=O)c1ccccc12)C(=O)c1ccccc1`, the pKi in test [1] is 5.27. The pEC50 result in test [5] and in test [4] was “inactive” in each case. In test [2], this compound gave a Ki of 5.37 µM. Further, the inhibition in test [3] worked out at 63.7%.
